From PubChem BioAssay AID1963442 (Molecular Pharmacology Branch, DTP, NCI, 2024)

System: MPNST complex spheroid with HUVEC/MSC, growth, % test/control
Assay: Anticancer human tumor MPNST cell line growth inhibition [Asc];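 further: compounds left on spheroids for seven days before reading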
Settings: for IC50: curve of first compound; for viability, T/C: stronger effect = lower value
Experimental: Multicellular complex tumor spheroid response to apoptosis pathway targeting inhibitors Alrizomadlin, Pelcitoclax, and Dasminapant in combination with a variety of drugs and investigational agents in selected tumor cell lines
The MDM2 inhibitor alrizomadlin, the Bcl-2/Bcl-xL inhibitor pelcitoclax, and the IAPs inhibitor dasminapant were evaluated both individually and in combination with standard of care and investigational anticancer small molecules within a complex spheroid model of solid tumors. . Complex spheroids include a stromal component modeled by human endothelial cells (HUVEC) and fibroblasts modeled by human mesenchymal stem cells (MSCs). The concentration ranges selected for each drug and investigational agent were based upon clinically achievable concentrations if the clinical Cmax of the agent was known.
Compounds. The drugs and investigational agents: alrizomadlin (APG-115; NSC831270), pelcitoclax (APG-1252; NSC835773), dasminapant (APG-1387;NSC834197), TAK-243 (NSC785004), copanlisib (NSC809693), olaparib (NSC753686), talazoparib (NSC767125), cobimetinib (NSC 768068), eltanexor (KPT-8602, NSC 794443), abemaciclib (NSC 768073), sotorasib (NSC818433), adagrasib (NSC 831453), MRTX-1133 (NSC 836407), Iadademestat (ORY1001, NSC 806812), and RMC-4630 (NSC839698), were obtained from the NCI Developmental Therapeutics Program Chemical Repository. The FDA-approved anticancer drug set is available from the Developmental Therapeutics Program at https://dtp.cancer.gov/organization/dscb/obtaining/available plates.htm. […] The stock solutions were prepared in dimethyl sulfoxide (DMSO, Sigma-Aldrich, St. Louis, MO, cat. D2650) at 800-fold the tested concentration and stored at -70 degrees C prior to their use. All drugs and investigational agents were tested over a range starting from a high concentration at or near the clinical Cmax and decreasing in half-log increments. If the clinical Cmax for an agent had not been determined, the highest concentration tested was 10 microM.
The patient-derived cancer (PDC) cell lines include five colon adenocarcinomas: 186277-243-T-J2-PDC, 616215-338-R-J1-PDC, 439559-082-T-J2-PDC, 463943-066-T-J2-PDC, and 519858-162-T-J1-PDC; three pancreatic carcinomas: 323965-272-R-J2-PDC, 521955-158-R6-J3-PDC, and 521955-158-R2-J5-PDC; two uterine sarcomas: 327498-152-R-J2-PDC and 993429-296-R-J1-PDC; two rhabdomyosarcomas: 755483-174-R-J1-PDC and 772245-204-R-J1-PDC; two soft tissue sarcomas: 126254-015-R-J1-PDC and 494315-158-R-J1-PDC; two malignant fibrous histiocytomas: 317291-083-R-J1-PDC and 596521-263-R-J1-PDC; two breast carcinomas: 171881-019-R-J1-PDC and 885512-296-R-J2-PDC; and one ovarian carcinoma: 6556581-035-R-J-PDC were obtained from the NCI PDMR, (https://pdmr.cancer.gov). The established cell lines HSSY-2 synovial sarcoma (RRID:CVCL 8719), SYO-1 synovial sarcoma (RRID:CVCL_7146), MPNST malignant peripheral neural sheath tumor were obtained from the Sloan Kettering Institute. The following established cell lines were purchased from the American Type Culture Collection (ATCC, Manassas, VA), Sor the received from the NCI repository:, PANC-1 pancreatic carcinoma (CRL-1469, RRID:CVCL_0480), OVCAR-5 ovarian carcinoma (RRID:CVCL_1628), OVCAR-8 ovarian carcinoma (RRID:CVCL_1629), , MCF-7 breast carcinoma (CRL-12584, RRID:CVCL_0031), MDA-MB-231 breast carcinoma (CRL-12532, RRID:CVCL_0062), NCI-H1876 small cell lung carcinoma (CRL-5902, RRID:CVCL_1503), NCI-H510A small cell lung carcinoma (HTB-184, RRID:CVCL_1565), NCI-H1417 (CRL-5869, RRID:CVCL_1469), and NCI-H196 small cell lung carcinoma (CRL-5823, RRID:CVCL_1509). Dr. Peter Houghton (Greehey Children's Cancer Research Institute, University of Texas Health Science Center, San Antonio, TX) provided Rh-18 rhabdomyosarcoma (RRID:CVCL_1659). Pooled donor human umbilical vein endothelial cells (HUVEC, Lonza, cat. CC-2519) and human mesenchymal stem cells (hMSC, Lonza, cat. PT-2501) were purchased from Lonza (Walkersville, MD).
Cell Culture. […]

[1] = second compound 0.1 µM, first compound 0.0316 µM
[2] = second compound 0.1 µM, first compound 0.1 µM
[3] = second compound 0.316 µM, first compound 0.0316 µM
[4] = second compound 0.316 µM, first compound 0.1 µM
[5] = second compound 1 µM, first compound 0.0316 µM
[6] = second compound 1 µM, first compound 0.1 µM

Structure (SMILES): NC1CCC(NC2CC2c2ccccc2)CC1 (configuration not stated) + CNC(C)C(=O)NC1CN(S(=O)(=O)c2cccc(S(=O)(=O)N3CCC4CCC(C(=O)NC(c5ccccc5)c5ccccc5)N4C(=O)C(NC(=O)C(C)NC)C3)c2)CCC2CCC(C(=O)NC(c3ccccc3)c3ccccc3)N2C1=O
- IC50 (second compound 0.00316 µM): > 0.1 µM
- IC50 (second compound 0.01 µM): 0.0839 µM
- IC50 (second compound 0.0316 µM): > 0.1 µM
- IC50 (second compound 0.1 µM): > 0.1 µM
- IC50 (second compound 0.316 µM): 0.0953 µM
- IC50 (second compound 1 µM): > 0.1 µM
- viability, T/C (second compound 0.00316 µM, first compound 0.000316 µM): 65.4%
- viability, T/C (second compound 0.00316 µM, first compound 0.001 µM): 91.4%
- viability, T/C (second compound 0.00316 µM, first compound 0.00316 µM): 51.1%
- viability, T/C (second compound 0.00316 µM, first compound 0.01 µM): 99.5%
- viability, T/C (second compound 0.00316 µM, first compound 0.0316 µM): 55%
- viability, T/C (second compound 0.00316 µM, first compound 0.1 µM): 52.7%
- viability, T/C (second compound 0.01 µM, first compound 0.000316 µM): 72.2%
- viability, T/C (second compound 0.01 µM, first compound 0.001 µM): 74.9%
- viability, T/C (second compound 0.01 µM, first compound 0.00316 µM): 79.5%
- viability, T/C (second compound 0.01 µM, first compound 0.01 µM): 84.7%
- viability, T/C (second compound 0.01 µM, first compound 0.0316 µM): 62.6%
- viability, T/C (second compound 0.01 µM, first compound 0.1 µM): 47.7%
- viability, T/C (second compound 0.0316 µM, first compound 0.000316 µM): 88.5%
- viability, T/C (second compound 0.0316 µM, first compound 0.001 µM): 63.8%
- viability, T/C (second compound 0.0316 µM, first compound 0.00316 µM): 70.4%
- viability, T/C (second compound 0.0316 µM, first compound 0.01 µM): 81.8%
- viability, T/C (second compound 0.0316 µM, first compound 0.0316 µM): 61.8%
- viability, T/C (second compound 0.0316 µM, first compound 0.1 µM): 61.6%
- viability, T/C (second compound 0.1 µM, first compound 0.000316 µM): 94.8%
- viability, T/C (second compound 0.1 µM, first compound 0.001 µM): 79.1%
- viability, T/C (second compound 0.1 µM, first compound 0.00316 µM): 87.3%
- viability, T/C (second compound 0.1 µM, first compound 0.01 µM): 61.1%
- viability, T/C [1]: 69.5%
- viability, T/C [2]: 54.3%
- viability, T/C (second compound 0.316 µM, first compound 0.000316 µM): 83.3%
- viability, T/C (second compound 0.316 µM, first compound 0.001 µM): 77.2%
- viability, T/C (second compound 0.316 µM, first compound 0.00316 µM): 69.3%
- viability, T/C (second compound 0.316 µM, first compound 0.01 µM): 99.6%
- viability, T/C [3]: 79.6%
- viability, T/C [4]: 48.7%
- viability, T/C (second compound 1 µM, first compound 0.000316 µM): 92.9%
- viability, T/C (second compound 1 µM, first compound 0.001 µM): 59.2%
- viability, T/C (second compound 1 µM, first compound 0.00316 µM): 69.1%
- viability, T/C (second compound 1 µM, first compound 0.01 µM): 63.3%
- viability, T/C [5]: 85.2%
- viability, T/C [6]: 55.7%

Structure (SMILES): C#Cc1c(F)ccc2cc(O)cc(-c3ncc4c(N5CC6CCC(C5)N6)nc(OCC56CCCN5CC(F)C6)nc4c3F)c12 (configuration not stated) + Cc1c(S(C)(=O)=O)c(-c2cc(F)cc(N3CCN(c4ccc(NS(=O)(=O)c5ccc(NC(CCN6CCC(C(=O)OCCCP(=O)(O)O)CC6)CSc6ccccc6)c(S(=O)(=O)C(F)(F)F)c5)cc4)CC3)c2)c(-c2ccc(Cl)cc2)n1C(C)C
- IC50 (second compound 0.1 µM): > 10 µM
- IC50 (second compound 0.316 µM): > 10 µM
- IC50 (second compound 1 µM): > 10 µM
- IC50 (second compound 3.16 µM): > 10 µM
- IC50 (second compound 10 µM): > 10 µM
- viability, T/C [1]: 99.2%
- viability, T/C [2]: 104%
- viability, T/C (second compound 0.1 µM, first compound 0.316 µM): 92.9%
- viability, T/C (second compound 0.1 µM, first compound 1 µM): 103%
- viability, T/C (second compound 0.1 µM, first compound 3.16 µM): 99.9%
- viability, T/C (second compound 0.1 µM, first compound 10 µM): 101%
- viability, T/C [3]: 93.4%
- viability, T/C [4]: 105%
- viability, T/C (second compound 0.316 µM, first compound 0.316 µM): 110%
- viability, T/C (second compound 0.316 µM, first compound 1 µM): 94.7%
- viability, T/C (second compound 0.316 µM, first compound 3.16 µM): 91%
- viability, T/C (second compound 0.316 µM, first compound 10 µM): 96.5%
- viability, T/C [5]: 97%
- viability, T/C [6]: 99.2%
- viability, T/C (second compound 1 µM, first compound 0.316 µM): 101%
- viability, T/C (second compound 1 µM, first compound 1 µM): 95.4%
- viability, T/C (second compound 1 µM, first compound 3.16 µM): 93.4%
- viability, T/C (second compound 1 µM, first compound 10 µM): 77%
- viability, T/C (second compound 3.16 µM, first compound 0.0316 µM): 80.5%
- viability, T/C (second compound 3.16 µM, first compound 0.1 µM): 91.2%
- viability, T/C (second compound 3.16 µM, first compound 0.316 µM): 117%
- viability, T/C (second compound 3.16 µM, first compound 1 µM): 101%
- viability, T/C (second compound 3.16 µM, first compound 3.16 µM): 78.2%
- viability, T/C (second compound 3.16 µM, first compound 10 µM): 71.8%
- viability, T/C (second compound 10 µM, first compound 0.0316 µM): 121%
- viability, T/C (second compound 10 µM, first compound 0.1 µM): 135%
- viability, T/C (second compound 10 µM, first compound 0.316 µM): 118%
- viability, T/C (second compound 10 µM, first compound 1 µM): 158%
- viability, T/C (second compound 10 µM, first compound 3.16 µM): 108%
- viability, T/C (second compound 10 µM, first compound 10 µM): 124%
